Assay results taken from patent US11753397B2, “Cereblon binders for the degradation of ikaros” (C4 Therapeutics, Inc., priority 2018, dated 2023).

System: NCIH929.1 cells
Assay: Cell viability assay (CellTiter-Glo 2.0, ATP quantification)
Type: cell-based
Settings: NCIH929.1 cell viability, CellTiter-Glo 2.0, 96 hr incubation, top concentration 1 μM
Summary of the method: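 Read-out is CellTiter-Glo 2.0 luminescence (ATP), after 96 h compound exposure at 37 °C, with a day-0 plate giving the CT0 baseline. Duplicate 10-point half-log titration from 1 μM applied to 750 cells/well in RPMI, 10% FBS, 0.05 mM 2-mercaptoethanol.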

**Q.** Which GI50 does the source give for `CC12CC(C(=O)N3CCC(n4cc(CNc5cccc6c5C(=O)N(C5CCC(=O)NC5=O)C6=O)cn4)CC3)(C1)C2` (centres unmarked) [Compound 85, 2-(2,6-dioxopiperidin-3-yl)-4-(((1-(1-(3-methylbicyclo[1.1.1]pentane-1-carbonyl)piperidin-4-yl)-1H-pyrazol-4-yl)methyl)amino)isoindoline-1,3-dione] here?
**A.** < 0.1 µM

**Q.** For `CCC1(C(=O)N2CCC(n3cc(CNc4cccc5c4C(=O)N(C4CCC(=O)NC4=O)C5=O)cn3)CC2)CCC1` (centres unmarked) [Compound 86, 2-(2,6-dioxopiperidin-3-yl)-4-(((1-(1-(1-ethylcyclobutane-1-carbonyl)piperidin-4-yl)-1H-pyrazol-4-yl)methyl)amino)isoindoline-1,3-dione], which GI50 is on record?
**A.** < 0.1 µM

**Q.** How did the GI50 turn out when `CC1(C(=O)N2CCC(n3cc(CNc4cccc5c4C(=O)N(C4CCC(=O)NC4=O)C5=O)cn3)CC2)CC1(Cl)Cl` (centres unmarked) [Compound 87, 4-(((1-(1-(2,2-dichloro-1-methylcyclopropane-1-carbonyl)piperidin-4-yl)-1H-pyrazol-4-yl)methyl)amino)-2-(2,6-dioxopiperidin-3-yl)isoindoline-1,3-dione] was run?
**A.** < 0.001 µM

**Q.** Which GI50 does the source give for `O=C1CCC(N2C(=O)c3cccc(NCc4cnn(C5CCN(C(=O)N6CCCCC6)CC5)c4)c3C2=O)C(=O)N1` (centres unmarked) [Compound 88, 2-(2,6-dioxopiperidin-3-yl)-4-(((1-(1-(piperidine-1-carbonyl)piperidin-4-yl)-1H-pyrazol-4-yl)methyl)amino)isoindoline-1,3-dione] here?
**A.** < 0.1 µM

**Q.** How did the GI50 turn out when `CC1(C)C(C(=O)N2CCC(n3cc(CNc4cccc5c4C(=O)N(C4CCC(=O)NC4=O)C5=O)cn3)CC2)C1(C)C` (centres unmarked) [Compound 89, 2-(2,6-dioxopiperidin-3-yl)-4-(((1-(1-(2,2,3,3,3-tetramethylcyclopropane-1-carbonyl)piperidin-4-yl)-1H-pyrazol-4-yl)methyl)amino)isoindoline-1,3-dione] was run?
**A.** < 0.001 µM

**Q.** How did the GI50 turn out when `CC(C)(C)C(=O)N1CCC(n2cc(CNc3cccc4c3C(=O)N(C3CCC(=O)NC3=O)C4=O)cn2)CC1` (centres unmarked) [Compound 90, 2-(2,6-dioxopiperidin-3-yl)-4-(((1-(1-pivaloylpiperidin-4-yl)-1H-pyrazol-4-yl)methyl)amino)isoindoline-1,3-dione] was run?
**A.** < 0.001 µM

**Q.** Which GI50 does the source give for `O=C1CCC(N2C(=O)c3cccc(NCc4cnn(C5CCN(C(=O)C67CC(CO6)C7)CC5)c4)c3C2=O)C(=O)N1` (centres unmarked) [Compound 91, 4-(((1-(1-(2-oxabicyclo[2.1.1]hexane-1-carbonyl)piperidin-4-yl)-1H-pyrazol-4-yl)methyl)amino)-2-(2,6-dioxopiperidin-3-yl)isoindoline-1,3-dione] here?
**A.** < 0.1 µM

**Q.** `O=C1CCC(N2C(=O)c3cccc(NCc4cnn(C5CCN(C(=O)C6(Cc7ccc(F)cc7)CC6)CC5)c4)c3C2=O)C(=O)N1` (centres unmarked) [Compound 92, 2-(2,6-dioxopiperidin-3-yl)-4-(((1-(1-(1-(4-fluorobenzyl)cyclopropane-1-carbonyl)piperidin-4-yl)-1H-pyrazol-4-yl)methyl)amino)isoindoline-1,3-dione] was tested. Which GI50 did it give?
**A.** < 0.1 µM

**Q.** For `C#CC1(C(=O)N2CCC(n3cc(CNc4cccc5c4C(=O)N(C4CCC(=O)NC4=O)C5=O)cn3)CC2)CCC1` (centres unmarked) [Compound 93, 2-(2,6-dioxopiperidin-3-yl)-4-(((1-(1-(1-ethynylcyclobutane-1-carbonyl)piperidin-4-yl)-1H-pyrazol-4-yl)methyl)amino)isoindoline-1,3-dione], which GI50 is on record?
**A.** < 0.001 µM

**Q.** For `O=C1CCC(N2C(=O)c3cccc(NCc4cnn(C5CCN(C(=O)C6(C7CC7)CCC6)CC5)c4)c3C2=O)C(=O)N1` (centres unmarked) [Compound 94, 4-(((1-(1-(1-cyclopropylcyclobutane-1-carbonyl)piperidin-4-yl)-1H-pyrazol-4-yl)methyl)amino)-2-(2,6-dioxopiperidin-3-yl)isoindoline-1,3-dione], which GI50 is on record?
**A.** < 0.001 µM

**Q.** With `O=C1CCC(N2C(=O)c3cccc(NCc4cnn(C5CCN(C(=O)C67C8C9C%10C8C6C%10C97)CC5)c4)c3C2=O)C(=O)N1` [Compound 95, 4-(((1-(1-((1s,4R,3R,4r,5r,6S,7S,8s)-cubane-1-carbonyl)piperidin-4-yl)-1H-pyrazol-4-yl)methyl)amino)-2-(2,6-dioxopiperidin-3-yl)isoindoline-1,3-dione] as the compound, how does the GI50 read?
**A.** < 0.001 µM

**Q.** For `O=C1CCC(N2C(=O)c3cccc(NCc4cnn(C5CCN(C(=O)C6(Cc7ccc(F)cc7)CCC6)CC5)c4)c3C2=O)C(=O)N1` (centres unmarked) [Compound 96, 2-(2,6-dioxopiperidin-3-yl)-4-(((1-(1-(1-(4-fluorobenzyl)cyclobutane-1-carbonyl)piperidin-4-yl)-1H-pyrazol-4-yl)methyl)amino)isoindoline-1,3-dione], which GI50 is on record?
**A.** < 0.001 µM

**Q.** With `O=C1CCC(N2C(=O)c3cccc(NCc4cnn(C5CCN(C(=O)C67CCC(C6)C7)CC5)c4)c3C2=O)C(=O)N1` (centres unmarked) [Compound 97, 4-(((1-(1-(bicyclo[2.1.1]hexane-1-carbonyl)piperidin-4-yl)-1H-pyrazol-4-yl)methyl)amino)-2-(2,6-dioxopiperidin-3-yl)isoindoline-1,3-dione] as the compound, how does the GI50 read?
**A.** < 0.1 µM

**Q.** With `O=C1CCC(N2C(=O)c3cccc(NCc4cnn(C5CCN(C(=O)C6C7(CC7)C67CC7)CC5)c4)c3C2=O)C(=O)N1` (centres unmarked) [Compound 98, 2-(2,6-dioxopiperidin-3-yl)-4-(((1-(1-(dispiro[2.0.24.13]heptane-7-carbonyl)piperidin-4-yl)-1H-pyrazol-4-yl)methyl)amino)isoindoline-1,3-dione] as the compound, how does the GI50 read?
**A.** < 0.001 µM

**Q.** How did the GI50 turn out when `CC(=O)NCC1CCC(C(=O)N2CCC(n3cc(CNc4cccc5c4C(=O)N(C4CCC(=O)NC4=O)C5=O)cn3)CC2)CC1` (centres unmarked) [Compound 99, N-((4-(4-(4-(((2-(2,6-dioxopiperidin-3-yl)-1,3-dioxoisoindolin-4-yl)amino)methyl)-1H-pyrazol-1-yl)piperidine-1-carbonyl)cyclohexyl)methyl)acetamide] was run?
**A.** < 0.1 µM

**Q.** Which GI50 does the source give for `O=C1CCC(N2C(=O)c3cccc(NCc4cnn(C5CCN(C(=O)C6CCN(c7ccccn7)CC6)CC5)c4)c3C2=O)C(=O)N1` (centres unmarked) [Compound 100, 2-(2,6-dioxopiperidin-3-yl)-4-(((1-(1-(1-(pyridin-2-yl)piperidine-4-carbonyl)piperidin-4-yl)-1H-pyrazol-4-yl)methyl)amino)isoindoline-1,3-dione] here?
**A.** < 0.001 µM

**Q.** For `O=C1CCC(N2C(=O)c3cccc(NCc4cnn(C5CCN(C(=O)C6CCN(C(=O)c7ccccc7)CC6)CC5)c4)c3C2=O)C(=O)N1` (centres unmarked) [Compound 101, 4-(((1-(1-(1-benzoylpiperidine-4-carbonyl)piperidin-4-yl)-1H-pyrazol-4-yl)methyl)amino)-2-(2,6-dioxopiperidin-3-yl)isoindoline-1,3-dione], which GI50 is on record?
**A.** < 0.1 µM

**Q.** For `CC(C)(C)OC(=O)N1CCC(F)(C(=O)N2CCC(n3cc(CNc4cccc5c4C(=O)N(C4CCC(=O)NC4=O)C5=O)cn3)CC2)CC1` (centres unmarked) [Compound 102, tert-butyl 4-(4-(4-(((2-(2,6-dioxopiperidin-3-yl)-1,3-dioxoisoindolin-4-yl)amino)methyl)-1H-pyrazol-1-yl)piperidine-1-carbonyl)-4-fluoropiperidine-1-carboxylate], which GI50 is on record?
**A.** < 0.1 µM

**Q.** For `COc1ccc(-c2cc(C(=O)N3CCC(n4cc(CNc5cccc6c5C(=O)N(C5CCC(=O)NC5=O)C6=O)cn4)CC3)ccn2)cc1` (centres unmarked) [Compound 103, 2-(2,6-dioxopiperidin-3-yl)-4-(((1-(1-(2-(4-methoxyphenyl)isonicotinoyl)piperidin-4-yl)-1H-pyrazol-4-yl)methyl)amino)isoindoline-1,3-dione], which GI50 is on record?
**A.** < 0.1 µM

**Q.** With `Cc1cccc2c(CC(=O)N3CCC(n4cc(CNc5cccc6c5C(=O)N(C5CCC(=O)NC5=O)C6=O)cn4)CC3)noc12` (centres unmarked) [Compound 104, 2-(2,6-dioxopiperidin-3-yl)-4-(((1-(1-(2-(7-methylbenzo[d]isoxazol-3-yl)acetyl)piperidin-4-yl)-1H-pyrazol-4-yl)methyl)amino)isoindoline-1,3-dione] as the compound, how does the GI50 read?
**A.** < 0.001 µM

**Q.** With `Cc1oc(-c2cccc(F)c2)nc1CC(=O)N1CCC(n2cc(CNc3cccc4c3C(=O)N(C3CCC(=O)NC3=O)C4=O)cn2)CC1` (centres unmarked) [Compound 105, 2-(2,6-dioxopiperidin-3-yl)-4-(((1-(1-(2-(2-(3-fluorophenyl)-5-methyloxazol-4-yl)acetyl)piperidin-4-yl)-1H-pyrazol-4-yl)methyl)amino)isoindoline-1,3-dione] as the compound, how does the GI50 read?
**A.** < 0.1 µM

**Q.** Which GI50 does the source give for `O=C1CCC(N2C(=O)c3cccc(NCc4cnn(C5CCN(C(=O)Cc6ccc(-c7ccc(F)cc7)cc6)CC5)c4)c3C2=O)C(=O)N1` (centres unmarked) [Compound 106, 2-(2,6-dioxopiperidin-3-yl)-4-(((1-(1-(2-(4′-fluoro-[1,1′-biphenyl]-4-yl)acetyl)piperidin-4-yl)-1H-pyrazol-4-yl)methyl)amino)isoindoline-1,3-dione] here?
**A.** < 0.1 µM

**Q.** How did the GI50 turn out when `O=C1CCC(N2C(=O)c3cccc(NCc4cnn(C5CCN(C(=O)C6CCN(C(=O)C7CCCC7)CC6)CC5)c4)c3C2=O)C(=O)N1` (centres unmarked) [Compound 107, 4-(((1-(1-(1-(cyclopentanecarbonyl)piperidine-4-carbonyl)piperidin-4-yl)-1H-pyrazol-4-yl)methyl)amino)-2-(2,6-dioxopiperidin-3-yl)isoindoline-1,3-dione] was run?
**A.** < 0.1 µM

**Q.** Which GI50 does the source give for `O=C1CCC(N2C(=O)c3cccc(NCc4cnn(C5CCN(C(=O)c6cccc(C#Cc7ccccc7)c6)CC5)c4)c3C2=O)C(=O)N1` (centres unmarked) [Compound 108, 2-(2,6-dioxopiperidin-3-yl)-4-(((1-(1-(3-(phenylethynyl)benzoyl)piperidin-4-yl)-1H-pyrazol-4-yl)methyl)amino)isoindoline-1,3-dione] here?
**A.** < 0.1 µM

**Q.** With `O=C1CCC(N2C(=O)c3cccc(NCc4cnn(C5CCN(C(=O)C6CCN(C(=O)C7CCOCC7)CC6)CC5)c4)c3C2=O)C(=O)N1` (centres unmarked) [Compound 109, 2-(2,6-dioxopiperidin-3-yl)-4-(((1-(1-(1-(tetrahydro-2H-pyran-4-carbonyl)piperidine-4-carbonyl)piperidin-4-yl)-1H-pyrazol-4-yl)methyl)amino)isoindoline-1,3-dione] as the compound, how does the GI50 read?
**A.** < 0.1 µM

**Q.** With `Cc1ccc(OC(C)(C)C(=O)N2CCC(n3cc(CNc4cccc5c4C(=O)N(C4CCC(=O)NC4=O)C5=O)cn3)CC2)cc1C` (centres unmarked) [Compound 110, 4-(((1-(1-(2-(3,4-dimethylphenoxy)-2-methylpropanoyl)piperidin-4-yl)-1H-pyrazol-4-yl)methyl)amino)-2-(2,6-dioxopiperidin-3-yl)isoindoline-1,3-dione] as the compound, how does the GI50 read?
**A.** < 0.1 µM
